Data published in publication PMC7772889, “Integrating biokinetics and in vitro studies to evaluate developmental neurotoxicity induced by chlorpyrifos in human iPSC-derived neural stem cells undergoing differentiation towards neuronal and glial cells” (Reproductive Toxicology (Elmsford, N.y.), 2020).

Experiments:
[1] = tested on: hiPSC-derived NSCs undergoing differentiation towards neurons and astrocytes; test: In vitro biokinetics of CPF and metabolites in medium, cells and plastic (HPLC-UV)
Method: The nominal concentration causing 5 % decrease of viability (IC5) was previously identified, extrapolating a dose response curves obtained with six CPF nominal concentrations (0.49, 1.95, 7.81, 31.25, 125, and 500 μM) vs solvent control (0.1 % DMSO) after 14-day treatment by means of resazurin test (CellTiter-Blue® Reagent).
CPF stock solutions were prepared in DMSO and stored in glass at −20 °C until the beginning of each experiment. Freshly prepared treatment solutions were obtained after the dilution of stock solutions in a ratio of […] in serum-free culture medium, keeping DMSO concentration at 0.1 %. Aliquots of the stock and daily treatment solutions (considered as the starting solutions) were stored at −80 °C until HPLC analysis.
Cells (about 21,000 cells/cm^2), seeded on 6 well PDL- and reduced growth factor Matrigel coated plates, were treated during the differentiation process, starting from day 7 of differentiation up to day 21, with treatment/medium refreshed twice a week (Fig. 2). Exposure to CPF of cells or pre-coated wells (without cells) was initiated by adding 2 mL per well of the corresponding treatment solutions or the vehicle (control wells). Four biological replicates were carried out.
A first set of experiments was used to fine tune the experimental conditions, including time points and exposure conditions, taking into account possible metabolism, bioaccumulation and/or physical sequestration processes. All the fractions (i.e., medium, cells, plastic and matrix-bound fractions) were collected, at the first and last day of treatment, at different time points (i.e., 1, 3, 6, 24 h) selected on the basis of the intrinsic features of the compound and the cellular model. At each time point, the medium was transferred into amber glass vials and stored at −80 °C until HPLC analysis. Cells were washed twice with PBS (2 mL/well); to avoid dehydration of the cells, an aliquot of PBS was kept in each well. PBS was then removed, cells were scraped from the wells in 250 μL MeOH, additional 100 μL MeOH were added for washing and all the content was transferred into amber glass vials. The same procedure was applied also to the wells used for measuring matrix-bound material (without cells). Cells were then sonicated until they were fully homogenized (about 15 min). All fractions, including DMSO from control wells and MeOH used to measure possible plastic binding, were stored at −80 °C until HPLC analysis. Four biological replicates were carried out.
All samples from kinetic experiments were analysed using high-performance liquid chromatography (HPLC), as previously described, to quantify CPF and its metabolites. Prior to analysis, one volume of the collected medium samples was mixed with three volumes of MeOH. All the mixtures, including cell and matrix-bound samples, were vortexed for 30 s and then centrifuged (Eppendorf 5417R; 4 °C, 2500 rpm) for 10 min. Preliminary assays were conducted to evaluate CPF and its metabolite recovery after the solvent extraction procedure from each type of sample. […] Plastic-bound fraction was injected as such.
The HPLC system included a PerkinElmer Series 200 analytical pump, a Restek™ Pinnacle ODS Amine C18 column, a PerkinElmer LC 235 Diode Array Detector and the PerkinElmer Totalchrom™ 3.1.2 software for data acquisition and evaluation. For analysing CPF, CPFO and TCP, a gradient elution was applied at a flow rate of 1.0 mL/min, starting at 80:20 % methanol /buffer (Tris /HCl 50 mM EDTA 1 mM pH 7.4) and reaching after 4 min a percentage of 70:30 (v/v), respectively, maintained for 16 min. Then, the gradient returned to the initial concentration before the next sample was injected.

[2] = cited from earlier work
[3] = prenatal exposure to CPF; cited from earlier work

For `Oc1nc(Cl)c(Cl)cc1Cl` [TCP, 3,5,6-trichloro-2-pyridinol], the “TCP in the intracellular compartment or adsorbed to the plastic” value ([1]; any time point) was “No TCP was detectable”, the “TCP present in the medium” value ([1]; first day of treatment with 21 μM CPF) was 6–18% and the “TCP present in the medium” value ([1]; last day of treatment with 21 μM CPF) was 7–14%.

In the case of `CCCCc1oc2ccccc2c1C(=O)c1cc(I)c(OCCN(CC)CC)c(I)c1` [amiodarone, reference compound], the “log Kow” value [2] is listed as 7.6.

In the case of `CCOP(=O)(O)OCC` [diethylphosphate], the “level in human postpartum meconium” value [3] is given as 0.80 to 3.20 µg/g.

For `CCOP(O)(=S)OCC` [diethylthiophosphate], the “level in human postpartum meconium” value [3] is given as 2.0 to 5.6 µg/g.

With chlorpyrifos-oxon [CPFO] the “CPFO adsorbed to the plastic” value ([1]; any time point) was “no CPFO adsorbed to the plastic was detectable” and the CPFO detection ([1]; last day of treatment) was “no longer detectable”.
